In brackets after ≈: the same amount, converted by molar mass.
Legend:
[1] = tested on: Human colon carcinoma (HCT-116) cell line; experiment: Anticancer activity, MTT assay against HCT-116; assay type: cell-based; details: for IC50: Homo sapiens, HCT-116, interpolated from graph (FIG. 5)
Description: (§1) The anticancer activity of the compound (3) denoted as “P” and compound (4) denoted as “DP” was assessed invitro by MTT 3-(4,5-dimethylthiazol-2-yl)-2,5-diphenyltetrazolium bromide assay against Human colon carcinoma (HCT-116) cell lines and Human breast adenocarcinoma (MDA-MB-468) respectively.
(§2) RPMI-1640, fetal bovine serum (FBS), penicillin, streptomycin was procured from HiMedia (Mumbai, India). Doxorubicin, MTT 3-(4,5-dimethylthiazol-2-yl)-2,5-diphenyltetrazolium bromide were procured from Sigma Aldrich (USA). The chemicals used were of analytical or HPLC grade. Human breast adenocarcinoma (MDA-MB-468), Human colon carcinoma (HCT-116) was procured from NCCS, Pune, India. The cell line was grown in the RPMI-1640 with 2 mM L-glutamine, supplemented with 10% FBS, penicillin (100 IU/mL) and streptomycin (100 μg/mL) at 37° C. in a 95% humidified CO2 incubator with 5% CO2 atmosphere. The cell lines were passaged twice weekly for maintaining sub-confluent state.
(§3) MTT assay was used as cell viability assay. The principle of the assay lies in the fact that the MTT is reduced to formazan crystals by mitochondrial dehydrogenase of the viable cells. The anticancer activity of compounds (3) and (4) was assessed invitro by MTT 3-(4,5-dimethylthiazol-2-yl)-2,5-diphenyltetrazolium bromide assay based on the methods by Mosmann, T and Bose et.al. (Mosmann, T. Journal of Immunological methods. 1983, 65, 55-63; and Bose, D. S.; Idrees, M.; Jakka, N. M.; Rao, J. V. J. Comb. Chem. 2010, 12, 100-110). Doxorubicin (DXN) a known anticancer drug was used as a reference compound in the assay. The treated and untreated cells were washed with PBS (Phosphate buffer saline) and MTT (100 μg/ml) was added and incubated at 37° C. for 5 hr. The MTT was then removed, and the formazan crystals were dissolved by adding DMSO. The absorbance at 540 nm represents the viable cells. The absorbance was recorded using Multiskan spectrum, Thermo scientific. […] The absorbance from the untreated cells was defined as 100% viable cells. The % viable cells were plotted (Y-axis) against concentration (X-axis). The IC50 values were interpolated from the graphs of FIGS. 5 and 6.

HEK cell line = experiment: ROS production in HEK cell line; assay type: cell-based, Human
[2] = tested on: Human breast adenocarcinoma (MDA-MB-468) cell line; experiment: Anticancer activity, MTT assay against MDA-MB-468; assay type: cell-based; details: for IC50: Homo sapiens, MDA-MB-468, interpolated from graph (FIG. 6)
Description: as §1, §2, §3

[3] = Cytotoxicity MTT assay in HEK 293 cell line; assay type: cell-based; details: human, HEK 293 cells, 48 hr of treatment, read-out: IC-50 value (cytotoxicity)
Description: Human embryonic kidney HEK 293 cell line were cultured in complete DMEM (Dulbecco's modified eagle medium) high glucose medium with 10% foetal bovine serum and 1% Penicillin Streptomycin and grown at 37° C.in a humidified incubator with 5% CO2. The cells were grown in T-25 flasks till about 80% confluency and 5000cells/well were seeded in a 96 well cell culture plate.
After 24 hr the cells were treated with all the concentrations of the drug (compound (4)) in triplicates and incubated for 48 hr.
After 48 hr of incubation MTT was added at a concentration of 0.5 mg/ml and incubated at 37° C. for 4 hr. After 4 hr the media was discarded from each well and DMSO was added. After 30 mins of incubation at 37° C.the colorimetric data was taken at 570 nm.

RAW 264.7 cells = experiment: Flow cytometry analysis of Reactive Oxygen Species production (DCFDA) in LPS induced RAW cell line; assay type: cell-based; details: RAW cell line treated along with LPS, 48 hours
Description: RAW cell line was cultured in a T 25 flask in DMEM. After the cells reached confluency evel up to 90 percent, they were seeded in 6 well plates at 1 lakh cells/well. After adhesion of cells drugs were treated along with LPS and kept for 48 hours.
Flow cytometry analysis of Reactive Oxygen Species production on RAW cell line:
After 48 hr of treatment cells were harvested and stained with DCFDA and run-on flow cytometer.

Row | IC50 [1] [µg/mL] | IC50 [2] [µg/mL] | SMILES | Percentage of cell death ([1]; HCT-116, 1.0 μg/mL) [%] | Percentage of cell death ([1]; HCT-116, 2.0 μg/mL) [%] | Percentage of cell death ([1]; HCT-116, 5.0 μg/mL) [%] | Percentage of cell death ([1]; HCT-116, 10.0 μg/mL) [%] | Percentage of cell death ([1]; HCT-116, 25.0 μg/mL) [%] | ROS production (HEK cell line) | Percentage of cell death ([2]; MDA-MB-468, 1.0 μg/mL) [%] | Percentage of cell death ([2]; MDA-MB-468, 2.0 μg/mL) [%] | Percentage of cell death ([2]; MDA-MB-468, 5.0 μg/mL) [%] | Percentage of cell death ([2]; MDA-MB-468, 10.0 μg/mL) [%] | Percentage of cell death ([2]; MDA-MB-468, 25.0 μg/mL) [%] | IC50 at 48 h [3] [µg/mL] | ROS production (RAW 264.7 cells)
1 | 3.8 (≈ 8.79 µM) | – | CC1(C)OC2OC(COC(=O)c3cc4ccccc4oc3=O)C3OC(C)(C)OC3C2O1 (stereo not drawn) [Compound (3)] | 25.81 ± 0.015 | 44.01 ± 0.028 | 61.45 ± 0.006 | 75.01 ± 0.076 | 88.64 ± 0.018 | – | – | – | – | – | – | – | –
2 | – | 3.2 (≈ 9.08 µM) | O=C(OCC1OC(O)C(O)C(O)C1O)c1cc2ccccc2oc1=O (stereo not drawn) [Compound (4)] | – | – | – | – | – | no ROS production | 25.71 ± 0.003 | 42.27 ± 0.026 | 66.49 ± 0.007 | 78.66 ± 0.018 | 86.10 ± 0.015 | > 1000 | able to produce ROS in all concentrations
3 | 5 (≈ 9.2 µM) | 5 (≈ 9.2 µM) | COc1cccc2c1C(=O)c1c(O)c3c(c(O)c1C2=O)C[C@@](O)(C(=O)CO)C[C@@H]3O[C@H]1C[C@H](N)[C@H](O)[C@H](C)O1 [DXN, Doxorubicin, reference compound] | 16.12 ± 0.001 | 31.68 ± 0.012 | 52.34 ± 0.015 | 63.76 ± 0.0031 | 73.45 ± 0.060 | – | 16.12 ± 0.001 | 31.68 ± 0.012 | 52.34 ± 0.015 | 63.76 ± 0.0031 | 73.45 ± 0.060 | – | –
